Experimental data taken from patent US10294237B2, “Bicyclic heterocyclic amide derivative” (Sumitomo Dainippon Pharma Co., Ltd., priority 2015, dated 2019).
pIC50: −log10 of the molar value.

How the values were obtained:
[1] = test system: HCT-116 cells; assay: Test for inhibiting sphere-forming ability of cancer cells; format: cell-based; settings: HCT-116 spheres, non-adherent, serum-free, 4 days, CellTiter-Glo, read-out: IC50 (Sphere IC50 value; concentration for 50% inhibition of cell proliferation)
Procedure: (§1) The reliable methods established for measuring the self-renewal ability of cells which is one of the CSC's properties include a method for measuring the sphere-forming ability of cancer cells in non-adherent condition in the absence of serum (Cancer Res 65, 5506-5511 (2005)). HCT-116 cells were available from the American Type Culture Collection (ATCC). HCT-116 cells were cultured at 37° C. and 5% CO2 using the McCoy's 5a medium containing 10% fetal bovine serum (FBS) and 1% penicillin/streptomycin. HCT-116 cells were seeded in a 384 Well Black Clear Bottom Ultra-Low Attachment Microplate (Corning Cat. No. 3827) in an amount of 350-800 cells/well using the DMEM/F12 medium containing 2% B27 supplement (GIBCO), 20 ng/mL epidermal growth factor (EGF) (peprotech), 10 ng/mL basic fibroblast growth factor (bFGF) (peprotech), 5 μg/mL insulin (Sigma), and 1% penicillin/streptomycin. The test compounds were added into each well to adjust the final concentration of DMSO to 0.1%, and the cells were cultured for 4 days. The number of viable cells in each well was then measured with CellTiter-Glo® Luminescent Cell Viability Assay (Promega) to calculate the concentration of each test compound for 50% inhibition of cell proliferation (Sphere IC50 value; μmol/L).
The experiment of Test Example 1 was performed for the compounds of each Example. The concentrations of each test compound for 50% inhibition of cell profeliration (Sphere IC50 value; μmol/L) are shown in the following Table.

[2] = test system: HCT-116 cells; assay: Test for inhibiting sphere-forming ability of cancer cells (in the presence of BSA); format: cell-based; settings: HCT-116 spheres, non-adherent, 5% BSA, 4 days, CellTiter-Glo, read-out: IC50 (Sphere IC50 value; concentration for 50% inhibition of cell proliferation)
Procedure: as §1, with “HCT-116” for “The reliable methods established for measuring the self-renewal ability of cells which is one of the CSC's properties include a method for measuring the sphere-forming ability of cancer cells in non-adherent condition in the absence of serum (Cancer Res 65, 5506-5511 (2005)). HCT-116”, “(Sigma), 5% bovine serum albumin (BSA),” for “(Sigma),”
The experiment of Test Example 2 was performed for the compounds of each Example. The concentrations of each test compound for 50% inhibition of cell profeliration (Sphere IC50 value; μmol/L) are shown in the following Table.

SMILES	pIC50 ([1]; Homo sapiens, 96 h)	pIC50 ([2]; Homo sapiens, HCT-116, 96 h)	pIC50 [1]	pIC50 [2]
O=C(Nc1cn(Cc2ccc(F)c(C(F)(F)F)c2)cn1)c1cnc2c(c1)CCNC2 [Example 53, N-{1-[4-fluoro-3-(trifluoromethyl)benzyl]-1H-imidazol-4-yl}-5,6,7,8-tetrahydro-1,7-naphthyridine-3-carboxamide]	7.22	7.22		
O=C(Nc1cn(Cc2ccc(Cl)cc2)cn1)c1cnc2c(c1)CCNC2 [Example 65, N-[1-(4-chlorobenzyl)-1H-imidazol-4-yl]-5,6,7,8-tetrahydro-1,7-naphthyridine-3-carboxamide]	7.10	6.42		
O=C(Nc1cn(Cc2cc(F)c(F)c(F)c2)cn1)c1cc2c(cn1)CNCC2 [Example 8, N-[1-(3,4,5-trifluorobenzyl)-1H-imidazol-4-yl]-5,6,7,8-tetrahydro-2,7-naphthyridine-3-carboxamide]	7.05	6.36		
O=C(Nc1cn(Cc2cc(F)c(F)c(F)c2)cn1)c1ccc2c(c1)CCNC2 [Example 25, N-[1-(3,4,5-Trifluorobenzyl)-1H-imidazol-4-yl]-(1,2,3,4-tetrahydroisoquinoline-6-carboxamide ditrifluoroacetate]	7.22	7.05		
O=C(Nc1cn(CCC2CCCCC2)cn1)c1ccc2c(c1)CCNC2 [Example 86]			6.33	6.25
O=C(/C=C/c1ccc2c(c1)CCO2)Nc1cn(Cc2cccc(Cl)c2)cn1 [Example 41]	8.00	7.70		
O=C(Nc1cn(Cc2cccc(Oc3ccccc3)c2)cn1)c1ccc2c(c1)CCNC2 [Example 89, N-[1-(3-phenoxybenzyl)-1H-imidazol-4-yl]-1,2,3,4-tetrahydroisoquinoline-6-carboxamide]	7.15	6.19		
O=C(Nc1cn(CCC2CCCCC2)cn1)c1cnc2c(c1)CCNC2 [Example 56]			7.15	6.80
O=C(Nc1cn(CC2CCCCC2)cn1)c1ccc2c(c1)CCNC2 [Example 85]			6.21	6.23
O=C(Nc1cn(Cc2ccc(F)c(C(F)(F)F)c2)cn1)c1ccc2c(c1)CCNC2 [Example 92, N-{1-[4-fluoro-3-(trifluoromethyl)benzyl]-1H-imidazol-4-yl}-1,2,3,4-tetrahydroisoquinoline-6-carboxamide]	7.15	7.05		
O=C(Nc1cn(Cc2cc(F)cc(F)c2)cn1)c1cnc2c(c1)CCNC2 [Example 47, N-[1-(3,5-difluorobenzyl)-1H-imidazol-4-yl]-5,6,7,8-tetrahydro-1,7-naphthyridine-3-carboxamide]	7.10	7.30		
O=C(Nc1cn(Cc2ccc(Cl)c(F)c2)cn1)c1cnc2c(c1)CCNC2 [Example 51, N-[1-(4-chloro-3-fluorobenzyl)-1H-imidazol-4-yl]-5,6,7,8-tetrahydro-1,7-naphthyridine-3-carboxamide]	7.22	7.30		
O=C(/C=C/c1ccc2c(c1)OC(F)(F)O2)Nc1cn(Cc2cccc(Cl)c2)cn1 [Example 40]	7.10	7.15		
O=C(Nc1cn(Cc2cc(F)c(F)c(F)c2)cn1)c1cc2c(cc1F)CNCC2 [Example 7]	6.41	6.21		
N#Cc1cccc(Cn2cnc(NC(=O)c3ccc4c(c3)CCNC4)c2)c1 [Example 88]			5.30	6.02
Cc1nc(NC(=O)c2ccc3c(c2)CCNC3)cn1Cc1cccc(C(F)(F)F)c1 [Example 22]	6.70	6.24		
O=C(Nc1cn(Cc2ccccc2C(F)(F)F)cn1)c1cnc2c(c1)CCNC2 [Example 62]			6.15	6.23
O=C(Nc1cn(Cc2ccc(OC(F)(F)F)cc2)cn1)c1ccc2c(c1)CCNC2 [Example 75]			6.40	6.21

SMILES	pIC50 ([1]; Homo sapiens, 96 h)	pIC50 ([2]; Homo sapiens, HCT-116, 96 h)	pIC50 [1]	pIC50 [2]
O=C(Nc1cn(Cc2cc(F)cc(F)c2)cn1)c1ccc2c(c1)CCNC2 [Example 74]			6.31	6.31
O=C(/C=C/c1ccc2c(c1)OCO2)Nc1cn(Cc2cccc(Cl)c2)cn1 [Example 38]	7.15	7.05		
N#Cc1cccc(Cn2cnc(NC(=O)c3cnc4c(c3)CCNC4)c2)c1 [Example 63]			5.44	6.15
O=C(Nc1cn(Cc2cc(F)c(F)c(F)c2)cn1)c1ccc2c(c1F)CCNC2 [Example 14]	6.37	6.34		
O=C(Nc1cn(Cc2ccc(F)cc2)cn1)c1ccc2c(c1)CCNC2 [Example 79]			6.26	6.31
O=C(Nc1cn(Cc2cc(Cl)cc(OC(F)(F)F)c2)cn1)c1cnc2c(c1)CCNC2 [Example 70, N-{1-[3-chloro-5-(trifluoromethoxy)benzyl]-1H-imidazol-4-yl}-5,6,7,8-tetrahydro-1,7-naphthyridine-3-carboxamide]	7.40	7.22		
O=C(Nc1cn(Cc2cc(Cl)cc(Cl)c2)cn1)c1ccc2c(c1)CCNC2 [Example 101, N-[1-(3,5-dichlorobenzyl)-1H-imidazol-4-yl]-1,2,3,4-tetrahydroisoquinoline-6-carboxamide]	7.15	7.22		
O=C(Nc1cn(CCCOc2ccccc2)cn1)c1cnc2c(c1)CCNC2 [Example 117]			5.17	5.25
COc1cccc(Cn2cnc(NC(=O)c3ccc4c(c3)CCNC4)c2)c1 [Example 78]			6.25	6.25
O=C(Nc1cn(Cc2ccc(Cl)c(C(F)(F)F)c2)cn1)c1cnc2c(c1)CCNC2 [Example 54, N-{1-[4-chloro-3-(trifluoromethyl)benzyl]-1H-imidazol-4-yl}-5,6,7,8-tetrahydro-1,7-naphthyridine-3-carboxamide]	> 8.00	7.52		
O=C(Nc1cn(Cc2ccc(F)c(F)c2)cn1)c1cnc2c(c1)CCNC2 [Example 48, N-[1-(3,4-difluorobenzyl)-1H-imidazol-4-yl]-5,6,7,8-tetrahydro-1,7-naphthyridine-3-carboxamide]	7.10	7.22		
O=C(Nc1cn(Cc2ccc3ccccc3c2)cn1)c1cnc2c(c1)CCNC2 [Example 66]			6.15	5.26
O=C(Nc1cc2c(cc1F)CNCC2)c1cn(Cc2cc(F)c(F)c(F)c2)cn1 [Example 1, N-(7-fluoro-1,2,3,4-tetrahydroisoquinolin-6-yl)-1-(3,4,5-trifluorobenzyl)-1H-imidazole-4-carboxamide]	7.10	6.77		
O=C(Nc1cn(Cc2cccc(C(F)(F)F)c2)cn1)c1ccc2c(c1)CCCN2 [Example 27]	6.16	5.22		
O=C(Nc1cn(Cc2cccc(C(F)(F)F)c2)cn1)c1ccc2c(c1)CCNC2 [Example 26]	7.10	7.00		
O=C(Nc1cn(Cc2ccc(F)c(Cl)c2)cn1)c1ccc2c(c1)CCNC2 [Example 95, N-[1-(3-chloro-4-fluorobenzyl)-1H-imidazol-4-yl]-1,2,3,4-tetrahydroisoquinoline-6-carboxamide]	7.10	7.05		
O=C(Nc1cn(Cc2ccc(F)c(F)c2)cn1)c1ccc2c(c1)CCNC2 [Example 73]			6.21	6.27
O=C(Nc1cn(Cc2ccc(C(F)(F)F)cc2)cn1)c1ccc2c(c1)CCNC2 [Example 83]			6.14	6.27
